How the values were obtained:
Type in all cases: functional
SNB-19 = assay: Growth inhibition of human SNB19 cells at 10^-5 M incubated for 48 hrs by sulforhodamine B assay; conditions: SNB-19, 48 h, read-out: GI
M14 = assay: Growth inhibition of human M14 cells at 10^-5 M incubated for 48 hrs by sulforhodamine B assay; conditions: M14, 48 h, read-out: GI
DU-145 = assay: Growth inhibition of human DU145 cells at 10^-5 M incubated for 48 hrs by sulforhodamine B assay; conditions: DU-145, 48 h, read-out: GI
KM12 = assay: Growth inhibition of human KM12 cells at 10^-5 M incubated for 48 hrs by sulforhodamine B assay; conditions: KM12, 48 h, read-out: GI
HCT-116 = assay: Growth inhibition of human HCT116 cells at 10^-5 M incubated for 48 hrs by sulforhodamine B assay; conditions: HCT-116, 48 h, read-out: GI
MDA-MB-435 = assay: Growth inhibition of human MDA-MB-435 cells at 10^-5 M incubated for 48 hrs by sulforhodamine B assay; conditions: MDA-MB-435, 48 h, read-out: GI
SK-OV-3 = assay: Growth inhibition of human SKOV3 cells at 10^-5 M incubated for 48 hrs by sulforhodamine B assay; conditions: SK-OV-3, 48 h, read-out: GI
K562 = assay: Growth inhibition of human K562 cells at 10^-5 M incubated for 48 hrs by sulforhodamine B assay; conditions: K562, 48 h, read-out: GI
UACC-62 = assay: Growth inhibition of human UACC62 cells at 10^-5 M incubated for 48 hrs by sulforhodamine B assay; conditions: UACC-62, 48 h, read-out: GI
786-0 = assay: Growth inhibition of human 786-0 cells at 10^-5 M incubated for 48 hrs by sulforhodamine B assay; conditions: 786-0, 48 h, read-out: GI
A498 = assay: Growth inhibition of human A498 cells at 10^-5 M incubated for 48 hrs by sulforhodamine B assay; conditions: A498, 48 h, read-out: GI
OVCAR-8 = assay: Growth inhibition of human OVCAR8 cells at 10^-5 M incubated for 48 hrs by sulforhodamine B assay; conditions: OVCAR-8, 48 h, read-out: GI
UACC-257 = assay: Growth inhibition of human UACC257 cells at 10^-5 M incubated for 48 hrs by sulforhodamine B assay; conditions: UACC-257, 48 h, read-out: GI
HT-29 = assay: Growth inhibition of human HT-29 cells at 10^-5 M incubated for 48 hrs by sulforhodamine B assay; conditions: HT-29, 48 h, read-out: GI
NCI-H23 = assay: Growth inhibition of human NCI-H23 cells at 10^-5 M incubated for 48 hrs by sulforhodamine B assay; conditions: NCI-H23, 48 h, read-out: GI
SF-295 = assay: Growth inhibition of human SF295 cells at 10^-5 M incubated for 48 hrs by sulforhodamine B assay; conditions: SF-295, 48 h, read-out: GI
HOP-62 = assay: Growth inhibition of human HOP62 cells at 10^-5 M incubated for 48 hrs by sulforhodamine B assay; conditions: HOP-62, 48 h, read-out: GI
ACHN = assay: Growth inhibition of human ACHN cells at 10^-5 M incubated for 48 hrs by sulforhodamine B assay; conditions: read-out: GI
TK-10 = assay: Growth inhibition of human TK10 cells at 10^-5 M incubated for 48 hrs by sulforhodamine B assay; conditions: TK-10, 48 h, read-out: GI
SN12C = assay: Growth inhibition of human SN12C cells at 10^-5 M incubated for 48 hrs by sulforhodamine B assay; conditions: read-out: GI
HL-60(TB) = assay: Growth inhibition of human HL-60(TB) cells at 10^-5 M incubated for 48 hrs by sulforhodamine B assay; conditions: HL-60, 48 h, read-out: GI
NCI-H522 = assay: Growth inhibition of human NCI-H522 cells at 10^-5 M incubated for 48 hrs by sulforhodamine B assay; conditions: NCI-H522, 48 h, read-out: GI
UO-31 = assay: Growth inhibition of human UO31 cells at 10^-5 M incubated for 48 hrs by sulforhodamine B assay; conditions: UO-31, 48 h, read-out: GI
EKVX = assay: Growth inhibition of human EKVX cells at 10^-5 M incubated for 48 hrs by sulforhodamine B assay; conditions: read-out: GI
PC-3 = assay: Growth inhibition of human PC3 cells at 10^-5 M incubated for 48 hrs by sulforhodamine B assay; conditions: PC-3, 48 h, read-out: GI
SK-MEL-28 = assay: Growth inhibition of human SK-MEL-28 cells at 10^-5 M incubated for 48 hrs by sulforhodamine B assay; conditions: SK-MEL-28, 48 h, read-out: GI
SF-268 = assay: Growth inhibition of human SF268 cells at 10^-5 M incubated for 48 hrs by sulforhodamine B assay; conditions: SF-268, 48 h, read-out: GI
Hs-578T = assay: Growth inhibition of human Hs 578T cells at 10^-5 M incubated for 48 hrs by sulforhodamine B assay; conditions: read-out: GI
NCI-H460 = assay: Growth inhibition of human NCI-H460 cells at 10^-5 M incubated for 48 hrs by sulforhodamine B assay; conditions: NCI-H460, 48 h, read-out: GI
LOX IMVI = assay: Growth inhibition of human LOXIMVI cells at 10^-5 M incubated for 48 hrs by sulforhodamine B assay; conditions: read-out: GI
SF-539 = assay: Growth inhibition of human SF539 cells at 10^-5 M incubated for 48 hrs by sulforhodamine B assay; conditions: SF-539, 48 h, read-out: GI
SK-MEL-2 = assay: Growth inhibition of human SK-MEL-2 cells at 10^-5 M incubated for 48 hrs by sulforhodamine B assay; conditions: SK-MEL-2, 48 h, read-out: GI
Malme-3M = assay: Growth inhibition of human MALME-3M cells at 10^-5 M incubated for 48 hrs by sulforhodamine B assay; conditions: read-out: GI
CCRF-CEM = assay: Growth inhibition of human CCRF-CEM cells at 10^-5 M incubated for 48 hrs by sulforhodamine B assay; conditions: read-out: GI
MCF7 = assay: Growth inhibition of human MCF7 cells at 10^-5 M incubated for 48 hrs by sulforhodamine B assay; conditions: MCF7, 48 h, read-out: GI
IGROV-1 = assay: Growth inhibition of human IGROV1 cells at 10^-5 M incubated for 48 hrs by sulforhodamine B assay; conditions: IGROV-1, 48 h, read-out: GI
HOP-92 = assay: Growth inhibition of human HOP92 cells at 10^-5 M incubated for 48 hrs by sulforhodamine B assay; conditions: HOP-92, 48 h, read-out: GI
OVCAR-4 = assay: Growth inhibition of human OVCAR4 cells at 10^-5 M incubated for 48 hrs by sulforhodamine B assay; conditions: OVCAR-4, 48 h, read-out: GI
OVCAR-5 = assay: Growth inhibition of human OVCAR5 cells at 10^-5 M incubated for 48 hrs by sulforhodamine B assay; conditions: OVCAR-5, 48 h, read-out: GI

SMILES | inhibition of growth at 10 µM (SNB-19) | inhibition of growth at 10 µM (M14) | inhibition of growth at 10 µM (DU-145) | inhibition of growth at 10 µM (KM12) | inhibition of growth at 10 µM (HCT-116) | inhibition of growth at 10 µM (MDA-MB-435) | inhibition of growth at 10 µM (SK-OV-3) | inhibition of growth at 10 µM (K562) | inhibition of growth at 10 µM (UACC-62) | inhibition of growth at 10 µM (786-0) | inhibition of growth at 10 µM (A498) | inhibition of growth at 10 µM (OVCAR-8) | inhibition of growth at 10 µM (UACC-257) | inhibition of growth at 10 µM (HT-29) | inhibition of growth at 10 µM (NCI-H23) | inhibition of growth at 10 µM (SF-295) | inhibition of growth at 10 µM (HOP-62) | inhibition of growth at 10 µM (ACHN) | inhibition of growth at 10 µM (TK-10) | inhibition of growth at 10 µM (SN12C) | other results
N=C1Nc2c(sc3ccc(Cl)cc23)C(c2ccc3ccccc3c2)N1 (stereo not drawn) | 18.1% | -0.34% | 12.1% | 3.41% | 10.6% | -4.57% | -0.13% | 6.06% | 6% | 5.33% | 6.65% | -3.15% | 8.66% | -3.45% | 5.66% | -3.49% | 13.8% | 25.9% | 30.2% | -25.1% | inhibition of growth at 10 µM (HL-60(TB)): -3.45%; inhibition of growth at 10 µM (NCI-H522): -6.52%; inhibition of growth at 10 µM (UO-31): 14.6%; inhibition of growth at 10 µM (EKVX): 1.13%; inhibition of growth at 10 µM (PC-3): -10%; inhibition of growth at 10 µM (SK-MEL-28): 2.06%; inhibition of growth at 10 µM (SF-268): -5.53%; inhibition of growth at 10 µM (Hs-578T): 14.6%; inhibition of growth at 10 µM (NCI-H460): 13.2%; inhibition of growth at 10 µM (LOX IMVI): 6.47%; inhibition of growth at 10 µM (SF-539): -2.62%; inhibition of growth at 10 µM (SK-MEL-2): -16.2%; inhibition of growth at 10 µM (Malme-3M): 1.8%; inhibition of growth at 10 µM (CCRF-CEM): -3.9%; inhibition of growth at 10 µM (MCF7): 6.28%; inhibition of growth at 10 µM (IGROV-1): -4.93%; inhibition of growth at 10 µM (HOP-92): 8.76%; inhibition of growth at 10 µM (OVCAR-4): 6.63%; inhibition of growth at 10 µM (OVCAR-5): -3.77%
O=C1CC(=O)N(C2=Nc3c(sc4ccc(Cl)cc34)C(c3cccc([N+](=O)[O-])c3)N2)N1 (stereo not drawn) | -9.31% | -11.3% | -15.1% | -3.57% | 0.7% | -10.2% | 1.27% | 0.75% | 8.04% | -4.83% | 6.96% | -4.71% | -8.39% | -6.83% | 14.7% | 0.3% | 9.64% | -11.9% | -11.9% | 18.3% | inhibition of growth at 10 µM (HL-60(TB)): -8%; inhibition of growth at 10 µM (NCI-H522): 9.63%; inhibition of growth at 10 µM (UO-31): 38%; inhibition of growth at 10 µM (EKVX): 21.9%; inhibition of growth at 10 µM (PC-3): 2.78%; inhibition of growth at 10 µM (SK-MEL-28): -19.8%; inhibition of growth at 10 µM (SF-268): -5.71%; inhibition of growth at 10 µM (Hs-578T): 5.51%; inhibition of growth at 10 µM (NCI-H460): 2.81%; inhibition of growth at 10 µM (LOX IMVI): 2.94%; inhibition of growth at 10 µM (SF-539): 4.39%; inhibition of growth at 10 µM (SK-MEL-2): -3.18%; inhibition of growth at 10 µM (Malme-3M): -4.33%; inhibition of growth at 10 µM (CCRF-CEM): -32.1%; inhibition of growth at 10 µM (MCF7): 21.7%; inhibition of growth at 10 µM (IGROV-1): 20.8%; inhibition of growth at 10 µM (HOP-92): -17.6%; inhibition of growth at 10 µM (OVCAR-4): -11.5%; inhibition of growth at 10 µM (OVCAR-5): -2.6%

Reference: ChEMBL document CHEMBL4414672, “Synthesis of certain benzothieno[3,2-d]pyrimidine derivatives as a selective SIRT2 inhibitors” (Eur J Med Chem, 2020)
